Assay results taken from paper PMC4371799 (Clinical Epigenetics, 2015).
Values joined by “and” are separate entries in the source; they are usually repeats but may differ in a detail not shown here. Equal entries are not always repeated. Where two headings read alike, the source gives them in different places.

Experiments:
CTR1 = test system: CTR1; parameters: method as in PMID 19470736; details: phase I clinical trial, refractory solid tumors and lymphomas; cited from earlier work
[1] = Azacitidine plasma pharmacokinetics, non-compartmental analysis; type: in vivo, patients; details: for AUC / Cmax / half-life / AUC(0-inf): human, plasma, intravenous
Excerpt: Compartmental and non-compartmental modeling were used to derive pharmacokinetic parameters, including Cmax (maximum concentration), AUC (area under the curve), t1/2 (half-life of elimination), Vd (volume of distribution), and CL (clearance).

[2] = test system: platinum-resistant ovarian cancer cells; details: cited from earlier work
[3] = oxaliplatin treatment reported by other investigators; cited from earlier work
[4] = parameters: method as in PMID 10778943; details: traditional infusion once every 2 to 3 weeks; cited from earlier work
[5] = Oxaliplatin plasma pharmacokinetics, non-compartmental analysis; details: for AUCall / AUCinf / C max / CL / V d / t 1/2: C1D2, mean (SD)
Procedure: This phase was followed by an expansion phase in which patients with CRC were treated with the maximum tolerated dose (MTD). Patients were treated with six cycles of therapy, unless they withdrew consent or experienced severe adverse events or progressive disease.
Oxaliplatin pharmacokinetics were assessed on day 2 during cycle 1 to permit correlation of pharmacokinetic parameters with toxicity and treatment outcome. Blood samples (10 ml per sample) were collected immediately prior to oxaliplatin infusion, immediately after infusion, and at 1, 2, 4, 6, 8, 12, and 24 h after infusion. Samples were assayed for total and unbound platinum using either inductively coupled plasma mass spectrometry or atomic absorption spectroscopy methods following isolation of the drug from plasma. Compartmental and non-compartmental models were used to derive pharmacokinetic parameters, including Cmax, AUC, t1/2, Vd, and CL.

[6] = Total platinum levels in snap-frozen tumor samples (ICP-MS); type: in vivo, patients
Excerpt: The tumor tissue was frozen and stored in cryogenic storage tubes before being analyzed for total platinum content using inductively coupled plasma mass spectrometry. If a sufficient amount of the sample remained following this analysis, the tissue was subjected to homogenization and extraction with 0.2% formic acid and acetonitrile for analysis by ultra-performance liquid chromatography/mass spectrometry for oxaliplatin content.

[7] = azacitidine/oxaliplatin 20/15 mg/m^2, C1D1, n = 3, mean (SD)
[8] = azacitidine/oxaliplatin 20/15 mg/m^2, C1D5, n = 3, mean (SD)
[9] = azacitidine/oxaliplatin 20/22.5 mg/m^2, C1D1, n = 3, mean (SD)
[10] = azacitidine/oxaliplatin 20/22.5 mg/m^2, C1D5, n = 3, mean (SD)
[11] = azacitidine/oxaliplatin 20/30 mg/m^2, C1D1, n = 3, mean (SD)
[12] = azacitidine/oxaliplatin 20/30 mg/m^2, C1D5, n = 3, mean (SD)
[13] = azacitidine/oxaliplatin 25/30 mg/m^2, C1D1, n = 3, mean (SD)
[14] = azacitidine/oxaliplatin 25/30 mg/m^2, C1D5, n = 3, mean (SD)
[15] = azacitidine/oxaliplatin 40/30 mg/m^2, C1D1, n = 3, mean (SD)
[16] = azacitidine/oxaliplatin 40/30 mg/m^2, C1D5, n = 3, mean (SD)
[17] = azacitidine/oxaliplatin 50/30 mg/m^2, C1D1, n = 22, mean (SD)
[18] = azacitidine/oxaliplatin 50/30 mg/m^2, C1D5, n = 22, mean (SD)
[19] = azacitidine/oxaliplatin 20/15 mg/m^2, n = 3
[20] = azacitidine/oxaliplatin 20/22.5 mg/m^2, n = 3
[21] = azacitidine/oxaliplatin 20/30 mg/m^2, n = 3
[22] = azacitidine/oxaliplatin 25/30 mg/m^2, n = 3
[23] = azacitidine/oxaliplatin 40/30 mg/m^2, n = 3
[24] = azacitidine/oxaliplatin 50/30 mg/m^2, n = 22
[25] = oxaliplatin 15 to 30 mg/m^2/day IV over 2 h, days 2 to 5, mean over dose levels
[26] = post-dose vs pre-dose, five post-dose tumor samples, dose level 6
[27] = seven patients, expansion phase, before treatment

Nc1ncn([C@H]2C[C@H](O)[C@@H](CO)O2)c(=O)n1 [decitabine]
effect on CTR1 expression (CTR1): significantly increased CTR1 expression

Nc1ncn([C@@H]2O[C@H](CO)[C@@H](O)[C@H]2O)c(=O)n1 [azacitidine]
dose-dependent interaction on mean systemic exposure (plasma AUCall) ([1]; azacitidine D1 and 5, with oxaliplatin): increasing the dose of oxaliplatin reduced the mean azacitidine exposure | CL [1, 7]: 167.1 (170.5) l/h/m^2 | V d [1, 7]: 92.3 (58.9) l/m^2 | CL [1, 8]: 136.7 (97.0) l/h/m^2 | V d [1, 8]: 61.1 (35.4) l/m^2 | CL [1, 9]: 62.7 (53.9) l/h/m^2 | V d [1, 9]: 78.6 (54.4) l/m^2 | CL [1, 10]: 62.9 (25.4) l/h/m^2 | V d [1, 10]: 85.4 (69.0) l/m^2 | CL [1, 11]: 239.3 (139.2) l/h/m^2 | V d [1, 11]: 226.5 (253.4) l/m^2 | CL [1, 12]: 146.1 (40.0) l/h/m^2 | V d [1, 12]: 71.6 (19.0) l/m^2 | CL [1, 13]: 168.6 (126.7) l/h/m^2 | V d [1, 13]: 70.3 (35.7) l/m^2 | CL [1, 14]: 150.0 (74.6) l/h/m^2 | V d [1, 14]: 132.2 (62.5) l/m^2 | CL [1, 15]: 616.6 (525.5) l/h/m^2 | V d [1, 15]: 105.8 (37.0) l/m^2 | CL [1, 16]: 253.0 (165.5) l/h/m^2 | V d [1, 16]: 95.6 (57.3) l/m^2 | AUCinf [1, 17]: 412.1 (195.7) h-ng/ml | C max [1, 17]: 581.1 (284.8) ng/ml | CL [1, 17]: 178 l/h/m^2 and 177.7 (155.9) l/h/m^2 | V d [1, 17]: 121 l/m^2 and 120.6 (112.0) l/m^2 | AUCinf [1, 18]: 431.5 (261.7) h-ng/ml | C max [1, 18]: 637.7 (428.6) ng/ml | CL [1, 18]: 156 l/h/m^2 and 156.2 (80.7) l/h/m^2 | V d [1, 18]: 94 l/m^2 and 94.0 (50.7) l/m^2 | AUC [1, 7]: 216 ng·h/mL | Cmax [1, 7]: 327 ng/mL | half-life [1, 7]: 32.4 min | AUC(0-inf) ([1]; azacitidine/oxaliplatin 20/15 mg/m^2, C1D1, n = 3, mean (SD), read-out: AUCinf): 221 ng·h/mL | AUC [1, 8]: 193 ng·h/mL | Cmax [1, 8]: 334 ng/mL | half-life [1, 8]: 21 min | AUC(0-inf) ([1]; azacitidine/oxaliplatin 20/15 mg/m^2, C1D5, n = 3, mean (SD), read-out: AUCinf): 196 ng·h/mL | AUC [1, 9]: 428 ng·h/mL | Cmax [1, 9]: 427 ng/mL | half-life [1, 9]: 653 min | AUC(0-inf) ([1]; azacitidine/oxaliplatin 20/22.5 mg/m^2, C1D1, n = 3, mean (SD), read-out: AUCinf): 2330 ng·h/mL | AUC(0-inf) ([1]; azacitidine/oxaliplatin 20/22.5 mg/m^2, C1D1, n = 3, median (footnote a), read-out: AUCinf, median): 259 ng·h/mL | AUC [1, 10]: 317 ng·h/mL | Cmax [1, 10]: 452 ng/mL | half-life [1, 10]: 76.2 min | AUC(0-inf) ([1]; azacitidine/oxaliplatin 20/22.5 mg/m^2, C1D5, n = 3, mean (SD), read-out: AUCinf): 357 ng·h/mL | AUC [1, 11]: 112 ng·h/mL | Cmax [1, 11]: 206 ng/mL | half-life [1, 11]: 32.4 min | AUC(0-inf) ([1]; azacitidine/oxaliplatin 20/30 mg/m^2, C1D1, n = 3, mean (SD), read-out: AUCinf): 125 ng·h/mL | AUC [1, 12]: 144 ng·h/mL | Cmax [1, 12]: 214 ng/mL | half-life [1, 12]: 20.4 min | AUC(0-inf) ([1]; azacitidine/oxaliplatin 20/30 mg/m^2, C1D5, n = 3, mean (SD), read-out: AUCinf): 146 ng·h/mL | AUC [1, 13]: 210 ng·h/mL | Cmax [1, 13]: 252 ng/mL | half-life [1, 13]: 19.8 min | AUC(0-inf) ([1]; azacitidine/oxaliplatin 25/30 mg/m^2, C1D1, n = 3, mean (SD), read-out: AUCinf): 216 ng·h/mL | AUC [1, 14]: 208 ng·h/mL | Cmax [1, 14]: 273 ng/mL | half-life [1, 14]: 43.2 min | AUC(0-inf) ([1]; azacitidine/oxaliplatin 25/30 mg/m^2, C1D5, n = 3, mean (SD), read-out: AUCinf): 214 ng·h/mL | AUC [1, 15]: 97.5 ng·h/mL | Cmax [1, 15]: 190 ng/mL | half-life [1, 15]: 9.6 min | AUC(0-inf) ([1]; azacitidine/oxaliplatin 40/30 mg/m^2, C1D1, n = 3, mean (SD), read-out: AUCinf): 100 ng·h/mL | AUC [1, 16]: 206 ng·h/mL | Cmax [1, 16]: 289 ng/mL | half-life [1, 16]: 16.2 min | AUC(0-inf) ([1]; azacitidine/oxaliplatin 40/30 mg/m^2, C1D5, n = 3, mean (SD), read-out: AUCinf): 212 ng·h/mL | AUC [1, 17]: 404 ng·h/mL | Cmax [1, 17]: 581 ng/mL | half-life [1, 17]: 40.2 min | AUC(0-inf) ([1]; azacitidine/oxaliplatin 50/30 mg/m^2, C1D1, n = 22, mean (SD), read-out: AUCinf): 412 ng·h/mL | AUC [1, 18]: 426 ng·h/mL | Cmax [1, 18]: 638 ng/mL | half-life [1, 18]: 25.2 min | AUC(0-inf) ([1]; azacitidine/oxaliplatin 50/30 mg/m^2, C1D5, n = 22, mean (SD), read-out: AUCinf): 432 ng·h/mL | effect on sensitivity to carboplatin [2]: enhance the sensitivity of platinum-resistant ovarian cancer cells to carboplatin

O=C1[O][Pt]2([NH][C@@H]3CCCC[C@H]3[NH]2)[O]C1=O [oxaliplatin]
incidence of peripheral neuropathy, all grades [3]: 40% to 50 | incidence of peripheral neuropathy, grade ≥3 [3]: 10% to 20 | AUCinf, mean, traditional infusion [4]: 9,907 ng-h/ml | Cmax, mean, traditional infusion [4]: 877 ng/mL | AUCall [5, 19]: 704.3 (228.5) h-ng/ml | AUCinf [5, 19]: 1,003.5 (211.1) h-ng/ml | C max [5, 19]: 337.3 (141.3) ng/ml | CL [5, 19]: 15.5 (3.7) l/h/m^2 | V d [5, 19]: 829.2 (580.0) l/m^2 | t 1/2 [5, 19]: 38.9 (31.9) h | AUCall [5, 20]: 1,178.4 (238.0) h-ng/ml | AUCinf [5, 20]: 1,359.3 (167.1) h-ng/ml | C max [5, 20]: 573.5 (131.1) ng/ml | CL [5, 20]: 16.7 (2.0) l/h/m^2 | V d [5, 20]: 443.5 (232.2) l/m^2 | t 1/2 [5, 20]: 17.9 (7.7) h | AUCall [5, 21]: 1,149.0 (930.3) h-ng/ml | AUCinf [5, 21]: 1,411.6 (1,065.1) h-ng/ml | C max [5, 21]: 446.9 (447.8) ng/ml | CL [5, 21]: 29.1 (15.7) l/h/m^2 | V d [5, 21]: 794.5 (703.8) l/m^2 | t 1/2 [5, 21]: 18.6 (11.9) h | AUCall [5, 22]: 1,369.1 (556.1) h-ng/ml | AUCinf [5, 22]: 1,919.4 (923.3) h-ng/ml | C max [5, 22]: 582.6 (270.3) ng/ml | CL [5, 22]: 19.2 (11.4) l/h/m^2 | V d [5, 22]: 587.5 (240.1) l/m^2 | t 1/2 [5, 22]: 23.7 (10.2) h | AUCall [5, 23]: 1,543.5 (502.1) h-ng/ml | AUCinf [5, 23]: 1,867.0 (387.0) h-ng/ml | C max [5, 23]: 751.7 (275.5) ng/ml | CL [5, 23]: 16.6 (3.9) l/h/m^2 | V d [5, 23]: 613.8 (541.2) l/m^2 | t 1/2 [5, 23]: 23.3 (15.6) h | AUCall [5, 24]: 1,286.3 (627.0) h-ng/ml | AUCinf [5, 24]: 1,456 h-ng/ml and 1,455.9 (657.6) h-ng/ml | C max [5, 24]: 650 ng/ml and 649.4 (384.5) ng/ml | CL [5, 24]: 24.5 l/h/m^2 and 24.5 (10.2) l/h/m^2 | V d [5, 24]: 554 l/m^2 and 554.0 (250.7) l/m^2 | t 1/2 [5, 24]: 16.5 (7.1) h | AUCinf, mean of the current infusion regimen [5, 25]: 1,503 ng-h/ml | Cmax, mean of the current infusion regimen [5, 25]: 557 ng/mL | kinetics of elimination ([5]; plasma, all dose levels): first-order kinetics of elimination | increase of tumor platinum concentration, median [6, 26]: 3.8 fold | increase of tumor platinum concentration, range [6, 26]: 3- to 18 fold | change of tumor platinum concentration ([6]; post-dose vs pre-dose, the two tumor samples with the highest pre-dose level): remained unchanged | pre-dose platinum level in tumor, median [6, 27]: 0.59 μg/g tumor | pre-dose platinum level in tumor, range [6, 27]: <0.25 to 5.8 μg/g tumor
